Read-outs that look alike come from different tables or passages of the source.

Holding throughout (type): in vivo
Experiment [1] concerns morningglory (Ipomoea spp.). Description: Test A pre-/postemergence: morningglory. As to conditions: for pest or weed control at 125 g/ha / pest or weed control at 500 g/ha: Ipomoea, 240 h. Put shortly:
(§1)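 Injury is scored visually on a scale where 0 means no effect and 100 complete control, comparing treated with untreated plants after approximately ten greenhouse days. Both preemergence and postemergence applications are made at the same time.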

The test system of experiment [2] is wheat (Triticum aestivum). Description: Test A pre-/postemergence: wheat. Conditions: for plant injury at 125 g/ha / plant injury at 500 g/ha: Triticum aestivum, 240 h. Put shortly: as §1
A further experiment deals with corn (Zea mays). Nature of the experiment: Test A pre-/postemergence: corn. As to conditions: for plant injury at 125 g/ha / plant injury at 500 g/ha / Corn plant response rating (crop injury, 0 = no effect, 100 = complete kill) at 125 g/ha / Corn plant response rating (crop injury, 0 = no effect, 100 = complete kill) at 500 g/ha: Zea mays, 240 h; for plant injury at 125 g/ha / plant injury at 500 g/ha: post-emergence, read-out: Corn plant response rating; for plant injury at 500 g/ha: visual rating on 0 to 100 scale (0 no effect, 100 complete control), approximately ten days; for Corn plant response rating (crop injury, 0 = no effect, 100 = complete kill) at 125 g/ha / Corn plant response rating (crop injury, 0 = no effect, 100 = complete kill) at 500 g/ha: pre-emergence. Put shortly:
as §1

Experiment [3] concerns ryegrass, Italian (Italian ryegrass, Lolium multiflorum). Nature of the experiment: Test C pre-/postemergence: ryegrass, Italian. Conditions: Preemergence. The text has this: (§2) Seeds of plant species selected from blackgrass (Alopecurus myosuroides), bromegrass, downy (downy bromegrass, Bromus tectorum), foxtail, green (green foxtail, Setaria viridis), ryegrass, Italian (Italian ryegrass, Lolium multiflorum), winter wheat (Triticum aestivum), wild oat (Avena fatua), galium (catchweed bedstraw, Galium aparine), bermudagrass (Cynodon dactylon), surinam grass (Brachiaria decumbens), cocklebur (common cocklebur, Xanthium strumarium), corn (Zea mays), large crabgrass (Digitaria sanguinalis), woolly cupgrass (Eriochloa villosa), foxtail, giant (giant foxtail, Setaria faberii), goosegrass (Eleusine indica), johnsongrass (Sorghum halepense), kochia (Kochia scoparia), lambsquarters (Chenopodium album), morningglory (Ipomoea coccinea), nightshade (eastern black nightshade, Solanum ptycanthum), nutsedge, yellow (yellow nutsedge, Cyperus esculentus), pigweed (Amaranthus retroflexus), ragweed (common ragweed, Ambrosia elation), soybean (Glycine max), common (oilseed) sunflower (Helianthus annuus), Russian thistle (Salsola kali) and velvetleaf (Abutilon theophrasti) were planted into a blend of loam soil and sand and treated preemergence with test chemicals formulated in a non-phytotoxic solvent mixture which included a surfactant.
(§3) At the same time, plants selected from these crop and weed species and also barley (winter barley, Hordeum vulgare), canarygrass (Phalaris minor), chickweed (common chickweed, Stellaria media) windgrass (Apera spica-venti) and deadnettle (henbit deadnettle, Lamium amplexicaule) were planted in pots containing Redi-Earth® planting medium (Scotts Company, 14111 Scottslawn Road, Marysville, Ohio 43041) comprising spaghnum peat moss, vermiculite, wetting agent and starter nutrients and treated with postemergence applications of test chemicals formulated in the same manner. Plants ranged in height from 2 to 18 cm (1- to 4-leaf stage) for postemergence treatments.
(§4) Treated plants and controls were maintained in a greenhouse for 13 to 15 days, after which time all species were compared to controls and visually evaluated. Plant response ratings, summarized in Table C, are based on a scale of 0 to 100 where 0 is no effect and 100 is complete control. A dash (-) response means no test result.

The test system of experiment [4] is galium (catchweed bedstraw, Galium aparine). Nature of the experiment: Test C pre-/postemergence: galium. As to conditions: Preemergence.
Excerpt: as §2, §3, §4

Experiment [5] relates to large crabgrass (Digitaria sanguinalis). Description: Test C pre-/postemergence: large crabgrass. As to conditions: Preemergence.
Excerpt: as §2, §3, §4

Experiment [6] deals with foxtail, giant (giant foxtail, Setaria faberii). Nature of the experiment: Test C pre-/postemergence: foxtail, giant. Conditions: Preemergence.
Excerpt: as §2, §3, §4

In experiment [7] the test system is johnsongrass (Sorghum halepense). Description: Test C pre-/postemergence: johnsongrass. As to conditions: Preemergence.
Excerpt: as §2, §3, §4

Experiment [8] has as its system pigweed (Amaranthus retroflexus). Nature of the experiment: Test C pre-/postemergence: pigweed. Conditions: Preemergence.
Excerpt: as §2, §3, §4

Experiment [9] has as its system velvetleaf (Abutilon theophrasti). Description: Test C pre-/postemergence: velvetleaf. Conditions: Preemergence.
Excerpt: as §2, §3, §4

[10] abbreviates: post-emergence, Postemergence, 125 g ai/ha, 0 to 100 scale, 0 is no effect, 100 is complete control, read-out: Morningglory plant response rating.
The mark [11] stands for this setting: post-emergence, Postemergence, 500 g ai/ha, visual rating on 0 to 100 scale (0 no effect, 100 complete control), approximately ten days, read-out: Morningglory plant response rating.
Where [12] appears, read: post-emergence, Postemergence, 125 g ai/ha, 0 to 100 scale, 0 is no effect, 100 is complete control, read-out: Wheat plant response rating.
[13] abbreviates: post-emergence, Postemergence, 500 g ai/ha, visual rating on 0 to 100 scale (0 no effect, 100 complete control), approximately ten days, read-out: Wheat plant response rating.
Where [14] appears, read: Postemergence, 125 g ai/ha, 0 to 100 scale, 0 is no effect, 100 is complete control.
Setting [15] is: Preemergence, 125 g ai/ha, 0 to 100 scale where 0 is no effect and 100 is complete control.
Setting [16] is: Preemergence, 500 g ai/ha, 0 to 100 scale (0 no effect, 100 complete control).
The mark [17] stands for this setting: Postemergence, 500 g ai/ha, 0 to 100 scale, 0 is no effect, 100 is complete control.
Where [18] appears, read: 16 g ai/ha, scale 0 (no effect) to 100 (complete control).
Setting [19] is: 31 g ai/ha, scale 0 (no effect) to 100 (complete control).
[20] abbreviates: 62 g ai/ha, scale of 0 to 100, 0 is no effect, 100 is complete control.
[21] abbreviates: 125 g ai/ha, scale 0 to 100, 0 no effect, 100 complete control.

As to `COc1nn(-c2ccc(C(F)(F)F)cc2)nc1Cn1ccc(C(F)(F)F)n1` [Compound 17, 4-methoxy-2-[4-(trifluoromethyl)phenyl]-5-[[3-(trifluoromethyl)-1H-pyrazol-1-yl]methyl]-2H-1,2,3-triazole], the pest or weed control at 125 g/ha in [1] (setting [10]) was found to be 50%; in experiment [1] (pre-emergence, Preemergence, 125 g ai/ha, 0 to 100 scale (0 no effect, 100 complete control), read-out: Plant response rating, Morningglory), 0%. The pest or weed control at 500 g/ha was determined as 90% in experiment [1] (setting [11]) and 50% in experiment [1] (pre-emergence, Preemergence, 500 g ai/ha, 0 to 100 scale, 0 is no effect, 100 is complete control, read-out: Plant response rating, Morningglory). Further, the plant injury at 125 g/ha came to 20% in [2] (setting [12]); 0% in experiment [2] (pre-emergence, Preemergence, 125 g ai/ha, 0 to 100 scale (0 no effect, 100 complete control), read-out: Plant response rating, Wheat); 30% with corn (Zea mays) (setting [14]). The plant injury at 500 g/ha in [2] (setting [13]) was 40%; in experiment [2] (pre-emergence, Preemergence, 500 g ai/ha, 0 to 100 scale, 0 is no effect, 100 is complete control, read-out: Plant response rating, Wheat), 0%; in the experiment on corn (Zea mays) (Postemergence, 500 g ai/ha), 30%. The same compound displayed a Corn plant response rating (crop injury, 0 = no effect, 100 = complete kill) at 125 g/ha in the experiment on corn (Zea mays) (Preemergence, 125 g ai/ha, 0 to 100 scale (0 no effect, 100 complete control)) of 0%. In the experiment with corn (Zea mays) (Preemergence, 500 g ai/ha, 0 to 100 scale, 0 is no effect, 100 is complete control), this compound gave a Corn plant response rating (crop injury, 0 = no effect, 100 = complete kill) at 500 g/ha of 20%.
In the case of `CCc1nn(-c2ccc(C(F)(F)F)cc2)nc1Oc1cccc(OC(F)(F)F)c1` [Compound 125, 4-ethyl-5-[3-(trifluoromethoxy)phenoxy]-2-[4-(trifluoromethyl)phenyl]-2H-1,2,3-triazole], the pest or weed control at 125 g/ha in experiment [1] (setting [10]) came to 60%; in experiment [1] (pre-emergence, Preemergence, 125 g ai/ha, 0 to 100 scale where 0 is no effect and 100 is complete control, read-out: Plant response rating, Morningglory) it was 0%. Moreover, the pest or weed control at 500 g/ha in experiment [1] (setting [11]) was found to be 100%; in experiment [1] (pre-emergence, Preemergence, 500 g ai/ha, 0 to 100 scale (0 no effect, 100 complete control), read-out: Plant response rating, Morningglory) it was 10%. The plant injury at 125 g/ha in [2] (setting [12]) stood at 0%; in experiment [2] (pre-emergence, Preemergence, 125 g ai/ha, 0 to 100 scale where 0 is no effect and 100 is complete control, read-out: Plant response rating, Wheat), 0%; with corn (Zea mays) (setting [14]), 20%. Also, the plant injury at 500 g/ha in [2] (setting [13]) came out at 20%; in experiment [2] (pre-emergence, Preemergence, 500 g ai/ha, 0 to 100 scale (0 no effect, 100 complete control), read-out: Plant response rating, Wheat) it was 0%; in the experiment on corn (Zea mays) (Postemergence, 500 g ai/ha), 30%. Also, the Corn plant response rating (crop injury, 0 = no effect, 100 = complete kill) at 125 g/ha with corn (Zea mays) (setting [15]) was determined as 0%. The Corn plant response rating (crop injury, 0 = no effect, 100 = complete kill) at 500 g/ha in the experiment on corn (Zea mays) (setting [16]) is 0%.
Consider `CCOc1nn(-c2ccc(Br)cc2)nc1Cc1ccnc(C(F)(F)F)c1` [Compound 189], for which the figures for the “Plant response rating, Morningglory” value in experiment [1] (setting [14]), in [1] (setting [15]) and in experiment [1] (setting [16]) were 60, 20 and 30, respectively. Also, the “Morningglory plant response rating” value in [1] (setting [17]) came out at 80. In addition, the figures for the “Plant response rating, Wheat” value in experiment [2] (setting [14]), in experiment [2] (setting [15]) and in experiment [2] (setting [16]) were 50, 20 and 50, respectively. The “Wheat plant response rating” value in experiment [2] (setting [17]) amounted to 60. Also, the “Plant response rating, Corn” value with corn (Zea mays) (setting [14]) is reported as 20; with corn (Zea mays) (setting [15]) it was 10; in the experiment with corn (Zea mays) (setting [16]), 10. Also, the “Corn plant response rating” value in the experiment with corn (Zea mays) (setting [17]) is listed as 40. Further, the “Plant response rating, Ryegrass, Italian” value is reported as 50 in experiment [3] (setting [18]), 60 in [3] (setting [19]), 85 in experiment [3] (setting [20]) and 100 in experiment [3] (setting [21]). Further, the “Plant response rating, Galium” value amounted to 80 in [4] (setting [18]), 80 in [4] (setting [19]), 80 in experiment [4] (setting [20]) and 95 in experiment [4] (setting [21]). Also, the “Plant response rating, Crabgrass, Large” value in [5] (setting [18]) amounted to 98; in experiment [5] (setting [19]) it was 98; in experiment [5] (setting [20]) it was 100; in experiment [5] (setting [21]), 100. For the same compound, the “Plant response rating, Foxtail, Giant” value in experiment [6] (setting [18]), in experiment [6] (setting [19]), in [6] (setting [20]) and in [6] (setting [21]) was 100 in each case. Further, the “Plant response rating, Johnsongrass” value was determined as 30 in experiment [7] (setting [18]), 50 in [7] (setting [19]), 85 in experiment [7] (setting [20]) and 85 in experiment [7] (setting [21]). For the same compound, the “Plant response rating, Pigweed” value in experiment [8] (setting [18]) amounted to 85; in experiment [8] (setting [19]), 98; in experiment [8] (setting [20]), 100; in [8] (setting [21]), 100. Also, the “Plant response rating, Velvetleaf” value is recorded as 10 in experiment [9] (setting [18]), 15 in experiment [9] (setting [19]), 40 in experiment [9] (setting [20]) and 60 in [9] (setting [21]).

Values taken from patent publication US9302999B2, “Substituted triazoles as herbicides” (E. I. DU PONT DE NEMOURS AND COMPANY, priority 2012, dated 2016).
